Reference: ChEMBL document CHEMBL1828616, “Novel terpene based 1,4,2-dioxazoles: synthesis, characterization, molecular properties and screening against Entamoeba histolytica” (Eur J Med Chem, 2011)

What was measured:
Entamoeba histolytica = test: Antiamoebic activity against Entamoeba histolytica HM-1:IMSS by microdilution method; assay type: functional, organism-based
[1] = Octanol-water partition coefficient, log P of the compound; assay type: physicochemical
H9c2 [2] = test: Cytotoxicity against rat H9c2 cells assessed as cell viability at 50 uM after 48 hrs by MTT assay; assay type: cell-based; details: h9c2, 48 h
[3] = Cytotoxicity against rat H9c2 cells assessed as cell viability at 3.13 to 25 uM after 48 hrs by MTT assay; assay type: cell-based; details: read-out: Activity
[4] = Selectivity index, ratio of IC50 for rat H9c2 cells to IC50 for Entamoeba histolytica HM-1:IMSS
H9c2 [5] = test: Cytotoxicity against rat H9c2 cells assessed as cell viability at 100 uM after 48 hrs by MTT assay; assay type: cell-based; details: h9c2, 48 h
H9c2 [6] = test: Cytotoxicity against rat H9c2 cells assessed as cell viability after 48 hrs by MTT assay; assay type: cell-based; details: H9c2, 48 h
H9c2 [7] = test: (§1) Cytotoxicity against rat H9c2 cells assessed as cell viability at 200 uM after 48 hrs by MTT assay; assay type: cell-based; details: h9c2, 48 h, 200 µM
in vitro = details: rat, H9c2 cells
Description: Cytotoxicity against rat H9c2 cells assessed as cell viability at 3.13 uM after 48 hrs by MTT assay

[8] = as §1; assay type: cell-based; details: H9c2 cells, read-out: Activity

Row | Structure (SMILES) | IC50 (Entamoeba histolytica) [µM] | logP [1] | Activity (H9c2 [2]) | viability at 48 h [3] [%] | Ratio IC50 [4] | Activity (H9c2 [5]) | IC50 (H9c2 [6]) [µM] | Activity (H9c2 [7]) | viability at 48 h, 3.13 µM (in vitro) [%] | viability at 48 h, 200 µM [8] [%]
1 | CC(C)=CCC/C(C)=C/C1=NOC(c2ccco2)O1 (configuration not stated) | 2.42 | 4.61 | – | – | – | – | – | – | – | –
2 | CC(C)=CCC/C(C)=C/C1=NOC(c2cccs2)O1 (configuration not stated) | 2.9 | 5.13 | – | – | – | – | – | – | – | –
3 | CC(C)=CCC/C(C)=C/C1=NOC(C)(c2cccs2)O1 (configuration not stated) | 3.01 | 5.67 | – | – | – | – | – | – | – | –
4 | CC1(c2cccs2)ON=C(c2ccc3c(c2)OCO3)O1 (configuration not stated) | 2.68 | 3.51 | – | – | – | – | – | – | – | –
5 | c1csc(C2=NOC(c3ccc4c(c3)OCO4)O2)c1 (configuration not stated) | 2.45 | 2.45 | – | – | – | – | – | – | – | –
6 | c1ccc(C2ON=C(c3ccc4c(c3)OCO4)O2)nc1 (configuration not stated) | 1.03 | 1.8 | Toxic | ≥ 82 | 38.83 | Toxic | 40 | Toxic | – | –
7 | CC(C)=CCC/C(C)=C/C1=NOC(c2ccccn2)O1 (configuration not stated) | 2.98 | 3.96 | – | – | – | – | – | – | – | –
8 | Cc1ncc([N+](=O)[O-])n1CCO [METRONIDAZOLE] | – | – | Toxic | – | >137.9 | Toxic | > 200 | Toxic | 100 | –
9 | CC(C)=CCC/C(C)=C/C1ON=C(c2cccs2)O1 (configuration not stated) | 3.05 | 4.74 | – | – | – | – | – | – | – | –
10 | CC(C)=CCC/C(C)=C/C1ON=C(c2ccco2)O1 (configuration not stated) | 2.78 | 5.25 | – | – | – | – | – | – | – | –
11 | CC(C)=CCC/C(C)=C/C1=NOC(C)(c2ccco2)O1 (configuration not stated) | 2.02 | 5.15 | – | – | – | – | – | – | – | –
12 | c1csc(C2ON=C(c3ccc4c(c3)OCO4)O2)c1 (configuration not stated) | 3.5 | 2.97 | – | – | – | – | – | – | – | –
13 | c1ccc(C2=NOC(c3ccc4c(c3)OCO4)O2)nc1 (configuration not stated) | 1.06 | 1.8 | Toxic | ≥ 82 | >80.18 | Toxic | 85 | Toxic | – | –
14 | c1coc(C2ON=C(c3ccc4c(c3)OCO4)O2)c1 (configuration not stated) | 1.09 | 2.45 | Toxic | ≥ 82 | >183.48 | Toxic | > 200 | Toxic | – | –
15 | CC(C)=CCC/C(C)=C/C1=NOC(c2ccc3c(c2)OCO3)O1 (configuration not stated) | 1.48 | 5.31 | – | – | – | – | – | – | – | –
16 | c1coc(C2=NOC(c3ccc4c(c3)OCO4)O2)c1 (configuration not stated) | 1.05 | 2.97 | Toxic | ≥ 82 | 190.47 | Toxic | 200 | Toxic | – | –
17 | CC(C)=CCC/C(C)=C/C1ON=C(c2ccccn2)O1 (configuration not stated) | 2.22 | 4.08 | – | – | – | – | – | – | – | –
18 | CC1(c2ccccn2)ON=C(c2ccc3c(c2)OCO3)O1 (configuration not stated) | 1 | 2.34 | Toxic | ≥ 82 | >200 | Toxic | > 200 | – | – | 88
19 | CC1(c2ccco2)ON=C(c2ccc3c(c2)OCO3)O1 (configuration not stated) | 1.1 | 2.99 | Toxic | ≥ 82 | >181.81 | Toxic | > 200 | Toxic | – | –
20 | CC(C)=CCC/C(C)=C/C1ON=C(c2ccc3c(c2)OCO3)O1 (configuration not stated) | 1.39 | 5.44 | – | – | – | – | – | – | – | –
21 | CC(C)=CCC/C(C)=C/C1=NOC(C)(c2ccccn2)O1 (configuration not stated) | 2.25 | 4.5 | – | – | – | – | – | – | – | –
